ChEMBL document CHEMBL1121776, “Folate antagonists. 18. Synthesis and antimalarial effects of N6-(arylmethyl)-N6-methyl-2,4,6-pteridinetriamines and related N6,N6-disubstituted 2,4,6-pteridinetriamines” (1981)
In brackets after ≈: the same amount, converted by molar mass.

What was measured:
Assay type in all cases: functional
Mus musculus [1] = assay: Parenteral antimalarial effect against Plasmodium berghei in mice (Mus musculus) at a dose of 160 mg/kg subcutaneously; Number of mice (Mus musculus) surviving at 60 days post infection and cured 10/10; settings: route subcutaneous
Enterococcus faecalis = assay: In vitro antibacterial effect against Streptococcus faecalis MGH-2
Escherichia coli [2] = assay: In vitro antibacterial effect against Escherichia coli Vogel by using gradient plate test
Pseudomonas aeruginosa = assay: In vitro antibacterial effect against Pseudomonas aeruginosa 28 by using gradient plate test
Mus musculus [3] = assay: Parenteral antimalarial effect against Plasmodium berghei in mice (Mus musculus) at a dose of 320 subcutaneous mg/kg; Number of mice (Mus musculus) surviving at 60 days post infection and cured 5/5
Mus musculus [4] = assay: Parenteral antimalarial effect against Plasmodium berghei in mice (Mus musculus) at a dose of 20sc mg/kg
[5] = test system: Mycobacterium tuberculosis; assay: In vitro antibacterial effect against Mycobacterium tuberculosis H37Rv by using gradient plate test
Staphylococcus aureus [6] = assay: In vitro antibacterial effect against Staphylococcus aureus UC-76 by using gradient plate test
Shigella sonnei = assay: In vitro antibacterial effect against Shigella sonnei C-10 by using gradient plate test
Staphylococcus aureus [7] = assay: In vitro antibacterial effect against Staphylococcus aureus S18713 by using gradient plate test
Mus musculus [8] = assay: Parenteral antimalarial effect against Plasmodium berghei in mice (Mus musculus) at a dose of 640 mg/kg subcutaneously; Number of mice (Mus musculus) surviving at 60 days post infection and cured 10/10; settings: route subcutaneous
Mus musculus [9] = assay: Parenteral antimalarial effect against Plasmodium berghei in mice (Mus musculus) at a dose of 10sc mg/kg
Mus musculus [10] = assay: Parenteral antimalarial effect against Plasmodium berghei in mice (Mus musculus) at a dose of 40 mg/kg subcutaneously; settings: route subcutaneous
Mus musculus [11] = assay: Parenteral antimalarial effect against Plasmodium berghei in mice (Mus musculus) at a dose of 160 subcutaneously mg/kg
Mus musculus [12] = assay: Parenteral antimalarial effect against Plasmodium berghei in mice (Mus musculus) at a dose of 640 subcutaneously mg/kg
Mus musculus [13] = assay: Parenteral antimalarial effect against Plasmodium berghei in mice (Mus musculus) at a dose of 80 mg/kg subcutaneously; Number of mice (Mus musculus) surviving at 60 days post infection and cured 2/5; settings: route subcutaneous
Mus musculus [14] = assay: Parenteral antimalarial effect against Plasmodium berghei in mice (Mus musculus) at a dose of 320 mg/kg subcutaneously; Number of mice (Mus musculus) surviving at 60 days post infection and cured 3/5; settings: route subcutaneous
Mus musculus [15] = assay: Parenteral antimalarial effect against Plasmodium berghei in mice (Mus musculus) at a dose of 160 mg/kg subcutaneously; Number of mice (Mus musculus) surviving at 60 days post infection and cured 3/5; settings: route subcutaneous
Mus musculus [16] = assay: Parenteral antimalarial effect against Plasmodium berghei in mice (Mus musculus) at a dose of 80 mg/kg subcutaneously; settings: route subcutaneous
Mus musculus [17] = assay: Parenteral antimalarial effect against Plasmodium berghei in mice (Mus musculus) at a dose of 320 subcutaneous mg/kg
Mus musculus [18] = assay: Parenteral antimalarial effect against Plasmodium berghei in mice (Mus musculus) at a dose of 160 mg/kg subcutaneously; Number of mice (Mus musculus) surviving at 60 days post infection and cured 8/10; settings: route subcutaneous
Escherichia coli [19] = assay: In vitro antibacterial effect against E. c. Vogel by using gradient plate test
Mus musculus [20] = assay: Parenteral antimalarial effect against Plasmodium berghei in mice (Mus musculus) at a dose of 160 mg/kg subcutaneously; Number of mice (Mus musculus) surviving at 60 days post infection and cured 6/10; settings: route subcutaneous
Mus musculus [21] = assay: Parenteral antimalarial effect against Plasmodium berghei in mice (Mus musculus) at a dose of 320 mg/kg subcutaneously; Number of mice (Mus musculus) surviving at 60 days post infection and cured 3; No of toxic deaths 2; settings: route subcutaneous
Mus musculus [22] = assay: Parenteral antimalarial effect against Plasmodium berghei in mice (Mus musculus) at a dose of 160 mg/kg subcutaneously 10/10; settings: route subcutaneous
Mus musculus [23] = assay: Parenteral antimalarial effect against Plasmodium berghei in mice (Mus musculus) at a dose of 320 mg/kg subcutaneously; 5/5; settings: route subcutaneous
Mus musculus [24] = assay: Parenteral antimalarial effect against Plasmodium berghei in mice (Mus musculus) at a dose of 20 mg/kg subcutaneously; Number of mice (Mus musculus) surviving at 60 days post infection and cured 8/15; settings: route subcutaneous
Mus musculus [25] = assay: Parenteral antimalarial effect against Plasmodium berghei in mice (Mus musculus) at a dose of 80 mg/kg subcutaneously; Number of mice (Mus musculus) surviving at 60 days post infection and cured 10/10; settings: route subcutaneous
Mus musculus [26] = assay: Parenteral antimalarial effect against Plasmodium berghei in mice (Mus musculus) at a dose of 20 mg/kg subcutaneously; Number of mice (Mus musculus) surviving at 60 days post infection and cured 4/10; settings: route subcutaneous
Mus musculus [27] = assay: Parenteral antimalarial effect against Plasmodium berghei in mice (Mus musculus) at a dose of 80 subcutaneously mg/kg; Number of mice (Mus musculus) surviving at 60 days post infection and cured 7/10
Mus musculus [28] = assay: Parenteral antimalarial effect against Plasmodium berghei in mice (Mus musculus) at a dose of 160 mg/kg subcutaneously; Number of mice (Mus musculus) surviving at 60 days post infection and cured 5/5; settings: route subcutaneous
Mus musculus [29] = assay: Parenteral antimalarial effect against Plasmodium berghei in mice (Mus musculus) at a dose of 40sc mg/kg; Number of mice (Mus musculus) surviving at 60 days post infection and cured 3/5

In the case of `CN(Cc1cccc2ccccc12)c1cnc2nc(N)nc(N)c2n1`, the MST (Mus musculus [1]) is reported as 10 days, the MIC (Enterococcus faecalis) is reported as under 0.25 µg/mL and the MIC (Escherichia coli [2]) is reported as over 25 µg/mL. For the same compound, the MIC (Pseudomonas aeruginosa) was over 25 µg/mL, the MST (Mus musculus [3]) was 5 days and the MST (Mus musculus [4]) was 5 days. The MIC [5] was over 25 µg/mL, the MIC (Staphylococcus aureus [6]) was under 0.25 µg/mL and the MIC (Shigella sonnei) was over 25 µg/mL. The MIC (Staphylococcus aureus [7]) was under 0.25 µg/mL, the MST (Mus musculus [8]) was 10 days and the MST (Mus musculus [9]) was 4 days.
Work on `Nc1nc(N)c2nc(N3CCC(c4ccccc4)CC3)cnc2n1` yielded an MIC (Enterococcus faecalis) of under 0.25 µg/mL, an MIC (Escherichia coli [2]) of over 25 µg/mL and an MIC (Pseudomonas aeruginosa) of over 25 µg/mL. The MIC [5] was 10 µg/mL (≈ 31.1 µM), the MIC (Staphylococcus aureus [6]) was over 0.25 µg/mL and the MIC (Shigella sonnei) was over 25 µg/mL. It also gave an MIC (Staphylococcus aureus [7]) of over 0.25 µg/mL, an MST (Mus musculus [10]) of 0.1 days and an MST (Mus musculus [11]) of 0.1 days. The MST (Mus musculus [12]) was 0.1 days.
Compound `Nc1nc(N)c2nc(N3CCCC3c3ccc(Cl)cc3)cnc2n1` (stereo unspecified) has an MST (Mus musculus [13]) of 2 days, an MST (Mus musculus [14]) of 3 days and an MST (Mus musculus [15]) of 3 days. The MST (Mus musculus [4]) was 10.1 days, the MST (Mus musculus [10]) was 12.1 days and the MST (Mus musculus [9]) was 7.9 days.
With `CN(Cc1c2ccccc2cc2ccccc12)c1cnc2nc(N)nc(N)c2n1` the MST (Mus musculus [16]) was 0.1 days, the MST (Mus musculus [4]) was 0.1 days and the MST (Mus musculus [17]) was 1.3 days.
Work on `CN(Cc1ccc(F)cc1)c1cnc2nc(N)nc(N)c2n1` yielded an MST (Mus musculus [18]) of 8 days, an MIC (Enterococcus faecalis) of under 0.25 µg/mL and an MIC (Pseudomonas aeruginosa) of over 25 µg/mL. For the same compound, the MST (Mus musculus [4]) was 8.5 days, the MIC [5] was 2.5 µg/mL (≈ 8.35 µM) and the MIC (Staphylococcus aureus [6]) was under 0.25 µg/mL. The MIC (Shigella sonnei) was over 25 µg/mL, the MIC (Staphylococcus aureus [7]) was under 0.25 µg/mL and the MST (Mus musculus [8]) was 10 days. The MIC (Escherichia coli [19]) was over 25 µg/mL.
`CN(Cc1ccccc1Cl)c1cnc2nc(N)nc(N)c2n1` was tested, and the MST (Mus musculus [20]) was 6 days, the MIC (Enterococcus faecalis) was under 0.25 µg/mL and the MST (Mus musculus [21]) was 3 days. The MIC (Pseudomonas aeruginosa) was over 25 µg/mL, the MST (Mus musculus [4]) was 9.5 days and the MIC [5] was 5 µg/mL (≈ 15.8 µM). The MIC (Staphylococcus aureus [6]) was under 0.25 µg/mL, the MIC (Shigella sonnei) was over 25 µg/mL and the MIC (Staphylococcus aureus [7]) was under 0.25 µg/mL. For the same compound, the MIC (Escherichia coli [19]) was over 25 µg/mL.
Compound `CN(Cc1ccc(Cl)c(Cl)c1)c1cnc2nc(N)nc(N)c2n1` has an MST (Mus musculus [22]) of 10 days, an MIC (Enterococcus faecalis) of under 0.25 µg/mL and an MIC (Pseudomonas aeruginosa) of over 25 µg/mL. For the same compound, the MST (Mus musculus [4]) was 10.6 days, the MIC [5] was 10 µg/mL (≈ 28.6 µM) and the MIC (Staphylococcus aureus [6]) was under 0.25 µg/mL. For the same compound, the MIC (Shigella sonnei) was over 25 µg/mL, the MIC (Staphylococcus aureus [7]) was under 0.25 µg/mL and the MST (Mus musculus [8]) was 10 days. For the same compound, the MST (Mus musculus [9]) was 2.5 days, the MIC (Escherichia coli [19]) was over 25 µg/mL and the MST (Mus musculus [23]) was 5 days.
`CN(CCc1ccccc1)c1cnc2nc(N)nc(N)c2n1` gave an MIC (Enterococcus faecalis) of under 0.25 µg/mL, an MIC (Escherichia coli [2]) of over 25 µg/mL and an MIC (Pseudomonas aeruginosa) of over 25 µg/mL. It also gave an MST (Mus musculus [16]) of 0.1 days, an MST (Mus musculus [4]) of 0.1 days and an MIC [5] of over 25 µg/mL. It also gave an MIC (Staphylococcus aureus [6]) of under 0.25 µg/mL, an MIC (Shigella sonnei) of over 25 µg/mL and an MIC (Staphylococcus aureus [7]) of under 0.25 µg/mL. For the same compound, the MST (Mus musculus [10]) was 0.1 days, the MST (Mus musculus [17]) was 1.7 days and the MST (Mus musculus [11]) was 0.7 days. The MST (Mus musculus [12]) was 3.9 days.
Work on `CN(Cc1ccccc1)c1cnc2nc(N)nc(N)c2n1` yielded an MIC (Enterococcus faecalis) of under 0.25 µg/mL, an MIC (Pseudomonas aeruginosa) of over 25 µg/mL and an MIC [5] of 10 µg/mL (≈ 35.5 µM). The MIC (Staphylococcus aureus [6]) was under 0.25 µg/mL, the MIC (Shigella sonnei) was over 25 µg/mL and the MIC (Staphylococcus aureus [7]) was under 0.25 µg/mL. It also gave an MST (Mus musculus [10]) of 0.1 days, an MST (Mus musculus [11]) of 0.1 days and an MIC (Escherichia coli [19]) of 10 µg/mL (≈ 35.5 µM). For the same compound, the MST (Mus musculus [12]) was 0.3 days.
With `CC1(C)N=C(N)N=C(N)N1c1ccc(Cl)cc1.Cl` [CHLORCYCLOGUANIL HYDROCHLORIDE] the MST (Mus musculus [16]) was 2 days, the MST (Mus musculus [4]) was 7.9 days and the MST (Mus musculus [10]) was 1 days. For the same compound, the MST (Mus musculus [17]) was 3 days, the MST (Mus musculus [11]) was 5 days and the MST (Mus musculus [12]) was 5 days.
`CN(Cc1ccc(Cl)c(Cl)c1)c1ccc2nc(N)nc(N)c2c1` showed an MST (Mus musculus [24]) of 8 days, an MST (Mus musculus [1]) of 10 days and an MST (Mus musculus [25]) of 10 days. The MST (Mus musculus [9]) was 8.7 days.
Work on `CN(Cc1ccc(Cl)cc1)c1cnc2nc(N)nc(N)c2n1` yielded an MST (Mus musculus [26]) of 4 days, an MST (Mus musculus [27]) of 7 days and an MST (Mus musculus [28]) of 5 days. For the same compound, the MST (Mus musculus [29]) was 3 days and the MST (Mus musculus [9]) was 4.3 days.
